Data reported in ChEMBL document CHEMBL5729281, “Dihydrooxadiazinones” (2022).

Key:
[1] = molecular target: cGMP-inhibited 3',5'-cyclic phosphodiesterase 3B (Homo sapiens, UniProt Q13370); assay: (§1) PDE3B Enzyme Inhibition: The commercially available 3H-cAMP Scintillation Proximity Assay (SPA, Perkin Elmer) system was used for enzyme inhibition studies. For the determination of the in vitro effect of example compounds on the PDE3B reactions 2 μl of the respective example compound solution in DMSO (serial dilutions) were placed in wells of microtiter plates (Isoplate-96/200W; Perkin Elmer). 50 μl of a dilution of PDE3B cell extract from Sf9 cells overexpressing human full length PDE3B (SB Drug Discovery, UK) in buffer A (50 mM Tris/HCl pH 7.5, 8.3 mM MgCl2, 1.7 mM EDTA, 0.2% BSA) was added. The dilution of the PDE3B cell extract was chosen such that the reaction kinetics was linear and less than 70% of the substrate was consumed (typical dilution 1:6000). The reaction was started by addition of 50 μl (0.025 μCi) of 1:2000 in buffer A w/o BSA diluted substrate [8-3H]adenosine 3′, 5′-cyclic phosphate (1 μCi/μl; Perkin Elmer). After incubation at room temperature for 60 min, the reaction was stopped by addition of 25 μl of a suspension containing 18 mg/ml yttrium scintillation proximity beads (Perkin Elmer) in water. The microtiter plates were sealed and measured in a Microbeta scintillation counter (PerkinElmer Wallac). IC50 values were determined from sigmoidal curves by plotting percentage PDE3B activity vs log compound concentration.
[2] = molecular target: cGMP-inhibited 3',5'-cyclic phosphodiesterase 3A (Homo sapiens, UniProt Q14432); assay: as §1, with “PDE3A” for “PDE3B”, “1:5000).” for “1:6000).”
Sequence of cGMP-inhibited 3',5'-cyclic phosphodiesterase 3A (Q14432 whole entry): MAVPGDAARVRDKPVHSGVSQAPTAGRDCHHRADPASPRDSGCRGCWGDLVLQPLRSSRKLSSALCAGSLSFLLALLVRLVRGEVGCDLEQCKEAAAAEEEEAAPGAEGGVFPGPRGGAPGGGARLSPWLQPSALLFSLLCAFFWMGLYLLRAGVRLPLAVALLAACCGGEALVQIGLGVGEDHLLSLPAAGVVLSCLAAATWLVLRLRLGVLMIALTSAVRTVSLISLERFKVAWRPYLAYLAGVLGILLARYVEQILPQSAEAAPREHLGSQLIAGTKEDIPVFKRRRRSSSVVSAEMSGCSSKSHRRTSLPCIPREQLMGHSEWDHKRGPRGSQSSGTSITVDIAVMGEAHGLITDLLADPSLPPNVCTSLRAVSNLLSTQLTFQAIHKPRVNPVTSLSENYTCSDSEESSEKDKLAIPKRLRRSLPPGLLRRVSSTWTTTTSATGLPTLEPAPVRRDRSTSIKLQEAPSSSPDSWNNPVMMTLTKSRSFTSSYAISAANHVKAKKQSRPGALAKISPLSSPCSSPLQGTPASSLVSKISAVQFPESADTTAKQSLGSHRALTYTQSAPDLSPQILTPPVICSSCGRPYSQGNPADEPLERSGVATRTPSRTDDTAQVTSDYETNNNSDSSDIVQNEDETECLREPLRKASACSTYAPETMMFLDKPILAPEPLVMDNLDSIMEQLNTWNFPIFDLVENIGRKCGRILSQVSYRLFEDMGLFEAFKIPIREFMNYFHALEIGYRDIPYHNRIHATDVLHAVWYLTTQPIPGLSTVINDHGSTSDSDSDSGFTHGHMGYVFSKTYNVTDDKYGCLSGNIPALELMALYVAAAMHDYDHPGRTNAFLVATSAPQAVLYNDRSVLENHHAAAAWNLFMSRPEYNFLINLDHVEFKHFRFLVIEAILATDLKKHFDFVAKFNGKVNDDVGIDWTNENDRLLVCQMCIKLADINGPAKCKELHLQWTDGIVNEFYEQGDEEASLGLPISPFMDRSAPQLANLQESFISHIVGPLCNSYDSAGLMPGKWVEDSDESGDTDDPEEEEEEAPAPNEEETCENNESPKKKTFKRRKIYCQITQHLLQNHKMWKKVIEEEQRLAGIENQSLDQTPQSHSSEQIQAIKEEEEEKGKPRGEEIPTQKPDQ

Sequence of cGMP-inhibited 3',5'-cyclic phosphodiesterase 3B (Q13370 whole entry): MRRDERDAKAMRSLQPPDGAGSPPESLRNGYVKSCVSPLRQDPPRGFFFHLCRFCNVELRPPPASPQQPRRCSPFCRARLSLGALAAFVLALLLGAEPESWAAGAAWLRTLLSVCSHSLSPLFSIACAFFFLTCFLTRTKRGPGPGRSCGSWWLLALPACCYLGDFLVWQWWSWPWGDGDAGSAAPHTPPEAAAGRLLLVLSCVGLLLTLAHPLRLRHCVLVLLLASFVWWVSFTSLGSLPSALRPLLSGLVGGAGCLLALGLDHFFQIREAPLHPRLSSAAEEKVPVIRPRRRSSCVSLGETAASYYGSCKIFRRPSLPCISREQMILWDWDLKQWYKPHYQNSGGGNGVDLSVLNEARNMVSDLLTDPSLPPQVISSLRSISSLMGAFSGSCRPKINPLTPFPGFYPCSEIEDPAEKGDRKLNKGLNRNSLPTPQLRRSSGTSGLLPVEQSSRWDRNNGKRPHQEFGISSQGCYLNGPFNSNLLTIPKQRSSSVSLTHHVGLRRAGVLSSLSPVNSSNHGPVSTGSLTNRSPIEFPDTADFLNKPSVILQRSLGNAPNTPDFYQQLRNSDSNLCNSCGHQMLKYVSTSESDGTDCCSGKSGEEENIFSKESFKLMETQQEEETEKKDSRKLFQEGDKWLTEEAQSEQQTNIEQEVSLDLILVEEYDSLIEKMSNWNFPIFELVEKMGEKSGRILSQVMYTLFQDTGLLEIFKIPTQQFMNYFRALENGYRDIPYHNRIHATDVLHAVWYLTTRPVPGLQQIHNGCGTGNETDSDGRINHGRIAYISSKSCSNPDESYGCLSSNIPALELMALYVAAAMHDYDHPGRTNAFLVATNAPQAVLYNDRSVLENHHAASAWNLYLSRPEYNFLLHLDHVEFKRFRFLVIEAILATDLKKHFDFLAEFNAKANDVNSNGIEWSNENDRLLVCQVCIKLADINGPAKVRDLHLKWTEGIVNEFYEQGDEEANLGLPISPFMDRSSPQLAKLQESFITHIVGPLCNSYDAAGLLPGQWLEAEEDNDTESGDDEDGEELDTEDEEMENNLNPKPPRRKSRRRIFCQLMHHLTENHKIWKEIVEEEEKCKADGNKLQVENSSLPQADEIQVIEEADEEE

Row | IC50 [1] [nM] | IC50 [2] [nM] | SMILES
1 | 23 | 20 | C[C@@H]1OC(=O)NN=C1c1ccc(N2CC(F)(F)C2)c(C(F)(F)F)c1
2 | 44 | 110 | Cc1cc(C2=NNC(=O)OC2)ccc1-c1cccnc1
3 | 383 | 657 | C[C@@H]1OC(=O)NN=C1c1ccc(-n2ccc(C(F)(F)F)n2)c(C(F)(F)F)c1
4 | 9 | 11 | C[C@@H]1OC(=O)NN=C1c1ccc(N2CC(C)(O)C2)c(C(F)(F)F)c1
